Patent US20100048714A1, “Methods and Compositions Related to Inhibition of Ceramide Synthesis” (University of Utah Research Foundation, priority 2006, published 2010)

Legend:
Sprague-Dawley rats = assay: Lipid infusion with hyperinsulinemic euglycemic clamps; type: in vivo, rat; details: for Glucose, During Clamp / FFA, Before Clamp / FFA, Before Infusion / FFA, During Clamp / Glucose, Before Clamp / Glucose, Before Infusion / Insulin, Before Clamp / Insulin, Before Infusion / Insulin, During Clamp: plasma, mean ± standard error, n=4; for Glucose, During Clamp: 30 minute steady state
Text: The more common mechanism by which insulin resistance likely develops in the obese is through the accumulation of fats in tissues not-suited for lipid storage. Indeed, intramyocellular lipid levels inversely correlate with insulin sensitivity, and are one of the best predictors of insulin resistance in humans. To mimic this condition in rats, a 20% lard oil-heparin infusate was delivered into the bloodstream of Sprague-Dawley rats via jugular catheters. […] To assess muscle insulin sensitivity during the infusion, hyperinsulinemic-euglycemic clamps were performed on conscious, unrestrained rats during the terminal 90 minutes of the protocol. Lard oil infusion decreased insulin-stimulated glucose disposal to 47% of glycerol treated control subjects (FIG. 3C). […] Differences in the glucose infusion rats could not be accounted for by the slight differences in the glucose concentration that was achieved during the clamp nor to differences in steady-state insulin concentrations (Table 3).
Male Sprague-Dawley rats (˜250 grams) were randomly divided into nine different groups. Glycerol, 20% lard oil, or 20% soy oil emulsions were prepared as previously described (Stein 1997) and infused at a constant rate of 5 mL/Kg/hour. To activate lipoprotein lipase, heparin (6 units/hour) was added to the triglyceride emulsions. Lipids were infused in animals treated with control injections (normal saline), myriocin (100 μg/Kg IP) or cycloserine (50 mg/Kg IP). Drugs were given 12 hours prior to lipid infusion and equivalent doses were given intravenously at the time of infusion. […] Following lipid infusion animals were deeply anesthetized with sodium pentobarbital and soleus muscles were rapidly dissected out and rapidly frozen in liquid nitrogen.
Clamps were performed in conscious unrestrained animals using swivels and tethers (Instech, Plymouth Meeting, Pa.) to allow uninterrupted movement of the animal without disruption of infusion lines. Hyperinsulinemia was initiated by intravenous infusion of insulin (10 mU/kg/min at a flow rate of 4 μL/min).

Sprague dawley rats = assay: Hyperinsulinemic euglycemic clamps of dexamethasone treated rats; type: in vivo, rat; details: plasma, 60 minute steady state, mean ± standard error, n=4
[1] = Intralipid infusion, with or without myriocin or cycloserine
[2] = lard oil infusion, with or without myriocin or cycloserine

Compound: CCCCCCC(=O)CCCCCC/C=C/C[C@@H](O)[C@H](O)[C@@](N)(CO)C(=O)O [Myriocin]
- insulin-stimulated glucose disposal / insulin resistance (Sprague-Dawley rats; [1]): Neither myriocin nor cycloserine prevented
- muscle DAG levels (Sprague-Dawley rats; [1]): Neither myriocin nor cycloserine prevented
- ceramide in skeletal muscle (Sprague-Dawley rats; [2]): blocked ceramide synthesis
- diacylglycerol (DAG) in muscle (Sprague-Dawley rats; [2]): Neither myriocin nor cycloserine reduced DAG
- glucose utilization in clamp (Sprague-Dawley rats; lard-infused animals): restored glucose utilization
- Glucose, During Clamp (Sprague-Dawley rats; Lipid: Glycerol): 111.2 ± 6.6 mg/dL
- Glucose, During Clamp (Sprague-Dawley rats; Lipid: Lard oil (PBS or drug)): 108.4 ± 1.0 mg/dL
- Glucose, During Clamp (Sprague-Dawley rats; Lipid: Soy oil (PBS or drug)): 108.3 ± 0.4 mg/dL
- FFA, Before Clamp (Sprague-Dawley rats; Lipid: Glycerol): 0.455 ± 0.13 mM
- FFA, Before Infusion (Sprague-Dawley rats; Lipid: Glycerol): 1.22 ± 0.25 mM
- FFA, During Clamp (Sprague-Dawley rats; Lipid: Glycerol): 0.872 ± 0.75 mM
- Glucose, Before Clamp (Sprague-Dawley rats; Lipid: Glycerol): 117.7 ± 9.1 mg/dL
- Glucose, Before Infusion (Sprague-Dawley rats; Lipid: Glycerol): 103.0 ± 10.6 mg/dL
- Insulin, Before Clamp (Sprague-Dawley rats; Lipid: Glycerol): 1.90 ± 0.71 ng/mL
- Insulin, Before Infusion (Sprague-Dawley rats; Lipid: Glycerol): 0.436 ± 0.03 ng/mL
- Insulin, During Clamp (Sprague-Dawley rats; Lipid: Glycerol): 8.02 ± 2.52 ng/mL
- FFA, Before Clamp (Sprague-Dawley rats; Lipid: Lard oil (PBS or drug)): 1.52 ± 0.49 mM
- FFA, Before Infusion (Sprague-Dawley rats; Lipid: Lard oil (PBS or drug)): 0.912 ± 0.30 mM
- FFA, During Clamp (Sprague-Dawley rats; Lipid: Lard oil (PBS or drug)): 2.427 ± 0.30 mM
- Glucose, Before Clamp (Sprague-Dawley rats; Lipid: Lard oil (PBS or drug)): 123.3 ± 3.8 mg/dL
- Glucose, Before Infusion (Sprague-Dawley rats; Lipid: Lard oil (PBS or drug)): 101.0 ± 11.4 mg/dL
- Insulin, Before Clamp (Sprague-Dawley rats; Lipid: Lard oil (PBS or drug)): 1.90 ± 0.50 ng/mL
- Insulin, Before Infusion (Sprague-Dawley rats; Lipid: Lard oil (PBS or drug)): 0.407 ± 0.47 ng/mL
- Insulin, During Clamp (Sprague-Dawley rats; Lipid: Lard oil (PBS or drug)): 17.02 ± 3.79 ng/mL
- FFA, Before Clamp (Sprague-Dawley rats; Lipid: Soy oil (PBS or drug)): 1.58 ± 0.57 mM
- FFA, Before Infusion (Sprague-Dawley rats; Lipid: Soy oil (PBS or drug)): 1.01 ± 0.10 mM
- FFA, During Clamp (Sprague-Dawley rats; Lipid: Soy oil (PBS or drug)): 1.80 ± 0.44 mM
- Glucose, Before Clamp (Sprague-Dawley rats; Lipid: Soy oil (PBS or drug)): 105.0 ± 4.6 mg/dL
- Glucose, Before Infusion (Sprague-Dawley rats; Lipid: Soy oil (PBS or drug)): 109.3 ± 10.4 mg/dL
- Insulin, Before Clamp (Sprague-Dawley rats; Lipid: Soy oil (PBS or drug)): 2.46 ± 1.1 ng/mL
- Insulin, Before Infusion (Sprague-Dawley rats; Lipid: Soy oil (PBS or drug)): 0.305 ± 0.08 ng/mL
- Insulin, During Clamp (Sprague-Dawley rats; Lipid: Soy oil (PBS or drug)): 11.55 ± 2.91 ng/mL
- Glucose, During Clamp (Sprague dawley rats; Dexamethasone-treated (Saline or Myriocin)): 129.3 ± 3.7 mg/dL
- Glucose, During Clamp (Sprague dawley rats; Dexamethasone: Control): 130.5 ± 2.9 mg/dL
